# Data from patent US20230134003A1, “METHOD AND APPARATUS FOR CLINICAL TESTING” (Lightcast Discovery Ltd, priority 2019, published 2023).
# Test system: sample strain of E. coli bacteria
# Test: Panel merge and MIC determination in microdroplets on oEWOD chip
# Format: cell-based
# Conditions: gentamicin in tryptic soy broth (TSB) droplets merged with droplets of 1-3 bacteria; growth pattern observed within three hours of reducing the concentration
# Description: Droplets were paired together so that the post-merge droplets were all roughly of uniform size. Every third droplet was labelled as a control and remained unpaired. The smaller droplets in this example contained the antibiotic gentamicin at a concentration of 500 ng/mL in tryptic soy broth (TSB), whilst each of the larger droplets contained 1-3 bacteria in TSB. […] Within three hours of reducing the concentration, a robust growth behaviour pattern was observed, allowing for a determination of the MIC. In this particular case, the MIC was determined to lie at approximately 300 pg/mL.
substance,measurement,value
gentamicin,MIC,approximately 300 pg/mL
